The text below walks through data of PMC10747339 (Pharmaceutics, 2023).

Counter-ions that a name gives are not always drawn. Like-named read-outs stand apart in the source and are kept apart here.

Series [1] in a line: 19F NMR titration, association constant by 1:1 isotherm fit. Format: physicochemical. Conditions: D2O, 300 K, total 5 mM. The protocol: The stoichiometry of the complex was determined using Job’s method. […] The total molar concentration and the total volume were kept constant at 5 mM and 500 µL, respectively, and the molar ratio of each component was varied from 0 to 1. Corresponding ^19F NMR spectra were recorded. The observation of chemical shifts varying in a linear fashion with the concentrations of bound species was obtained and affords the corresponding Job plots as described elsewhere.
^19F NMR Titrations: the same experimental data set of Job plot titrations was used. The association constants were obtained by fitting a 1:1 isotherm according to the programs available at http://app.supramolecular.org/bindfit/ (accessed on 19 October 2023).

A short description of series [2]: Phase solubility studies with cyclodextrins (Higuchi and Connors), complexation efficiency (Loftsson). It counts as physicochemical. Conditions: phosphate buffer; for complexation efficiency (CE), range over the media: citrate buffer, WFI. The protocol:
Cyclodextrins solutions (from 26 mM to 264 mM) were prepared within sodium citrate (50 mM, pH 3) and sodium phosphate (80 mM, pH 2.7) buffer solutions and WFI. […] Aliquots were drawn from these suspensions and filtered through a Pall Life Science (Cortland, NY, USA) 0.45 µm filter with a Versapore acrylic copolymer membrane before quantification. The pH of these suspensions was checked before filtration.
(§1) Quantification of mefloquine was performed using a Shimadzu® Nexera® high-performance liquid chromatography system (Kyoto, Japan). One microliter of samples was eluted on a 150 mm × 2.1 mm 1.7 µm octadodecyl Acquity® column (Waters, Milford, CT, USA) at 40 °C using an isocratic ammonia buffer(120 mM, pH 10):acetonitrile:methanol (40:40:20, v/v/v) mobile phase at a 1 mL/min flow rate. The samples were diluted to 1/10th with the mobile phase before injection. Quantification was performed at 283 nm with daily made calibration curves. This method was linear for concentrations ranging from 10 to 5000 mg/L. The limit of quantification was estimated at […] and the repeatability and intermediate fidelity were good (coefficient of variation < 5%) for concentrations ranging from 50 to 5000 mg/L.
Complexation efficiencies (CE) were determined from the phase solubility studies using the Loftsson method. CE = (D/CD)/(CD) = Slope/(1 − Slope) where (D/CD) is the concentration of dissolved complex; (CD) is the concentration of dissolved free CD, and Slope is the slope of the phase-solubility profile.

Series [3] is described as follows: Photostability study (ICH), HPLC content. It counts as physicochemical. Conditions: 168 days; for change in mefloquine content: 25 °C, 60% RH, 7500 Lux and 1.1 W/m^2; for color change: light exposure. As for the experimental part:
The solutions were stored in type 1 glass vials (n = 3 for each solution) sealed with a rubber septum. […] Photostability studies were conducted using the Binder KBF P240 climatic chamber (Tuttligen, Germany), equipped with UVA and visible illumination sources set at 7500 Lux and 1.1 W/m^2. The chamber was maintained at a temperature of 25 ± 2 °C and a relative humidity of 60 ± 5% during the 6-months study.
The method was adapted using pharmacopeia recommendations for utilization with the Phenomenex® Kinetex® 2.6 µm, 150 × 2.1 mm column (Torrance, CA, USA), featuring the same octadecyl stationary phase with a smaller particle size. By employing this column, the flow rate was optimized at 0.4 mL/min.

Series [4] can be described thus: Solubility of mefloquine hydrochloride in buffer solutions and water for injection. Conditions: for solubility at 24 h: thermodynamic from solid. It counts as physicochemical. As for the experimental part:
These suspensions were sonicated for 1 h and stirred for 24 h at 24 °C and protected from the light. Aliquots were drawn from these suspensions and filtered through a Pall Life Science (Cortland, NY, USA) 0.45 µm filter with a Versapore acrylic copolymer membrane before quantification. The pH of these suspensions was checked before filtration.
as §1

For series [5] the following is noted: hydrochloride salt, cited from earlier work.
The subject of series [6] is caco-2. Details: method as in PMID 27045516. Conditions: cited from earlier work.
The test system of series [7] is p-Gp. The settings on record: cited from earlier work.
The conditions of series [8]: piperidine's basicity; cited from earlier work.

With `CC(O)COC[C@H]1O[C@@H]2O[C@H]3[C@H](O)[C@@H](O)[C@@H](O[C@H]4[C@H](O)[C@@H](O)[C@@H](O[C@H]5[C@H](O)[C@@H](O)[C@@H](O[C@H]6[C@H](O)[C@@H](O)[C@@H](O[C@H]7[C@H](O)[C@@H](O)[C@@H](O[C@H]8[C@H](O)[C@@H](O)[C@@H](O[C@H]1[C@H](O)[C@H]2O)O[C@@H]8COCC(C)O)O[C@@H]7COCC(C)O)O[C@@H]6COCC(C)O)O[C@@H]5COCC(C)O)O[C@@H]4COCC(C)O)O[C@@H]3COCC(C)O` (stereo partly drawn) [HP-β-CD, hydroxypropyl-β-cyclodextrin], the “average association constant (K1:1)” value in series [1] was found to be 140.5 M⁻¹. For the same molecule, in series [2], the “complexation efficiency (CE), range over the media” value is reported as 0.1–0.13.

Turning to `OC(c1cc(C(F)(F)F)nc2c(C(F)(F)F)cccc12)C1CCCCN1` (stereo not drawn) [mefloquine, mefloquine hydrochloride], the “change in mefloquine content” value in series [3] (10 mg/mL in 200 mM RAMEB solution) and in series [3] (10 mg/mL in acetonitrile:water (50:50)) was “No substantial change” each time. In addition, the color change result in series [3] (RAMEB solution) and in series [3] (acetonitrile:water (50:50) solution) was “No color change” throughout. Besides, in series [3] (both solutions), the “additional peaks (degradation products) in chromatograms” value was “did not reveal any additional peak appearances”. Also, the solubility at 24 h in series [4] (aqueous buffer, citrate buffer, pH 2.7, 24 °C) turned out to be 640 µg/mL; in series [4] (aqueous buffer, phosphate buffer, pH 2.6, 24 °C) it was 4810 µg/mL; in series [4] (aqueous buffer, phosphate buffer, pH 6.5, 24 °C), 780 µg/mL; in series [4] (water for injection (purified water), purified water, final pH 4.6, 24 °C) it was 4120 µg/mL. Besides, the “change in solubility, citrate buffer compared to phosphate buffer” value in series [4] (same pH value) was “eight-fold decrease”. In series [4] (versus ref 4), the “solubility compared with previously reported” value is listed as “two-fold higher”. In addition, the solubility in series [5] (acetate buffer, pH 4.5, 37 °C) was 1950 µg/mL; in series [5] (water, pH 6.5, 37 °C) it was 1806 µg/mL. The permeability result in series [6] is given as “around 9 × 10^−6 cm/s”. Moreover, the p-Gp inhibition entry in series [7] was “moderate”. Moreover, the pKa in series [8] was 8.6.

As to “randomly methylated β-cyclodextrin [RAMEB]”, the “average association constant (K1:1)” value in series [1] was 333.4 M⁻¹. For the same molecule, in series [2], the “complexation efficiency (CE), range over the media” value was 0.31–0.38 and the “equivalents of cyclodextrin to achieve target concentration of 26.5 mM (10 mg/mL) mefloquine” value is reported as “approximately two”.

By solubility is commonly meant the dissolved amount per volume that the medium holds. For orientation: pKa means the negative logarithm of the acid dissociation constant.
